Experimental data: patent publication US7745465B2, “Method of enhancing cellular production of molecular chaperone, hydroxylamine derivatives useful for enhancing the chaperone production and the preparation thereof” (CytRx Corporation, priority 1995, dated 2010)

Columns and labels:
plasma membrane fluidity = experiment: Steady-state fluorescence anisotropy of DPH-PA in serum deprived cells; assay type: cell-based; settings: both cell models
Description: Experiments were carried out using WEH1 mouse fibrosarcoma and H9c2 rat heart muscle cell lines divided into three groups: • control (10% FCS fetal calf serum) • serum deprived • N-[2-hydroxy-3-(1-piperidinyl)propoxy]-3-pyridinecarboximidoyl chloride maleate (10^−5 M) treated and serum deprived 1.2(i) Serum Deprivation and MTT Test
Cell suspensions of […] in PBS were labeled by the addition of DPH-PA (3-[p-(6-Phenyl)-1,3,5-hexatrienyl]phenylpropionic acid) dissolved in tetrahydrofuran at a final concentration of 0.1 :M and incubated for 10 min. at 37 C. The amount of organic solvent added was 0.05% to avoid its effect on cell membranes. […] Fluorescence measurements were carried out at 37° C. using a Quanta Master QM-1 T-format luminescence spectrometer (Photon Technology Int. Inc., N.J. USA) equipped with polarizers in the excitation and in the two emission light path. […] The measured fluorescence intensities were corrected for background fluorescence and light scattering from the unlabeled sample. The fluorescence anisotropy was calculated as rs=(IVV−G·IVH)/(IVV+(2×G×IVH))
where IVV and IVH are observed intensities measured with polarizers parallel and perpendicular to the vertically polarized exciting beam, respectively. […]

SPRD male rats = experiment: Cardiac ischemia (LAD occlusion 5 min, reperfusion 10 min): ventricular tachycardia, fibrillation, survival; assay type: in vivo, rat
Description: Experiments were carried out in SPRD male rats. The animals were anaesthetized with Nembutal in a dose of 60 mg/kg/i.p. After opening the chest and pericardium, the LAD coronary artery was occluded for 5 minutes and then the incidence and duration of ventricular tachycardia and fibrillation in the reperfusion period (10 minutes) were investigated. Tissue samples were collected from the left and right ventricles.

[1] = tested on: Rats with genetic hypertension; experiment: Morphological examination of the thoracic aorta of rats with genetic hypertension; assay type: in vivo, rat; settings: daily oral treatment (20 mg/kg 8 days or 5 mg/kg 20 days)
Description: Rats with genetic hypertension were divided into four groups of four. The groups were treated daily, orally, the first group with physiological saline, the second group with N-[2-hydroxy-3-(1-piperidinyl)]-propoxy-3-pyridine-carboximidoyl-chloride maleate (20 mg/kg) for 8 days, the third group with N-[2-hydroxy-3-(1-piperidinyl)-propoxy]-benzimidoyl-chloride monohydrochloride (5 mg/kg) for 20 days and the fourth group with N-[2-hydroxy-3-(1-piperidinyl)-propoxy]-2-thiophenecarboximidoyl-chloride monohydrochloride (5 mg/kg) for 20 days. Animals were sacrificed, aortas were isolated, snap frozen in liquid nitrogen and were stored at −70° C. till they were used.
The examination was performed according to published methods (Br. J. of Pharmacol., 1995; 115, […]). A 1 mm^2 area of the thoracic aorta was excised and fixed in 2.5% glutaral-dehyde at room temperature. Post fixation was performed in 1% osmium-tetroxide for one hour. The tissue was dehydrated in ethanol and was embedded in Durcupan ACM. Pictures were taken by a Hitachi 7100 electronmicroscope and were evaluated qualitatively.

yeast cells = experiment: Proliferation of yeast cells; assay type: cell-based
[2] = 0.5-, 0.75-, 1.0 mg/kg i.v. 5 min. before the occlusion

Structure (SMILES): O=C(O)/C=C\C(=O)O.OC(CON=C(Cl)c1cccnc1)CN1CCCCC1 (stereo not drawn) [N-[2-hydroxy-3-(1-piperidinyl)-propoxy]3-pyridinecarboximidoyl chloride maleate]
- membrane physical state (fluorescence anisotropy of DPH-PA) (plasma membrane fluidity): almost complete preservation of the membrane physical state
- survival of reperfusion after the 5 min. occlusion (SPRD male rats; 100 mg/kg p.o., all control animals (n=6) died): survived the reperfusion
- mean duration of ventricular tachycardia (SPRD male rats; [2]): reduced significantly
- survival rate (preventing ventricular fibrillation) (SPRD male rats; [2]): improved the survival rate
- regeneration of the cells of aorta [1]: facilitated the regeneration of the cells of aorta
- proliferative effect (yeast cells): unexpected proliferative effect
